We go through 26 molecules from patent US20170334899A1, “AMINO-SUBSTITUTED ISOTHIAZOLES” (Bayer Pharma Aktiengesellschaft, priority 2014, published 2017).

Each structure is given as a SMILES string.

The target in the test is T1, catalytic domain of human Bub1 (amino acids 704-1085) (Homo sapiens, UniProt O43683).
T1 construct: catalytic domain of human Bub1 (amino acids 704-1085); His6 (N); made in house; host or cells: insect cells (Hi5)
T1 sequence (O43683 704-1085): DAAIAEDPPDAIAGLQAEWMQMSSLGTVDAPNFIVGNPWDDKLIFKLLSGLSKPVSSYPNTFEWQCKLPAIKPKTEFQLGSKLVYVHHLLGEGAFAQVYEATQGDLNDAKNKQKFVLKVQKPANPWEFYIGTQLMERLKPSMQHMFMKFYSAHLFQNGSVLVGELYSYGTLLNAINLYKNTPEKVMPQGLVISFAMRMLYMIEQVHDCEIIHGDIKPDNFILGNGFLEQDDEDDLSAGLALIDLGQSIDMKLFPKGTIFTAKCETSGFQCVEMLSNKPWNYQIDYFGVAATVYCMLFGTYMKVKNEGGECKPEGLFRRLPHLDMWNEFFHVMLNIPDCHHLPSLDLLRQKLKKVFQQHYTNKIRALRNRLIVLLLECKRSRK
The test can be described thus: Bub1 kinase assay (TR-FRET). The test is classed as biochemical. As to conditions: 10 μM ATP, avg, read-out: Bub1 avg (IC50 [mol/l]). In short, it runs like this: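 Readout is the 665/620 nm TR-FRET ratio from anti-phosphoserine antibody, Eu-labelled anti-mouse IgG and streptavidin-XL665, scaled between no-enzyme and uninhibited controls. Reaction: 1 μM biotinylated peptide, 10 μM ATP, 60 min, 22 °C, after 15 min compound preincubation with His6-Bub1 (704-1085, insect-expressed, ~200 ng/ml).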
For the molecule `Cc1nsc(Nc2cncc(C(F)(F)F)n2)c1C(=O)Nc1ccc(F)c(OC2CCN(CCC(F)(F)F)CC2)c1` [Example 343, N-(4-fluoro-3-{[1-(3,3,3-trifluoropropyl)piperidin-4-yl]oxy}phenyl)-3-methyl-5-{[6-(trifluoromethyl)pyrazin-2-yl]amino}-1,2-thiazole-4-carboxamide], the IC50 is not below 20 µM. Consider `Cc1nsc(Nc2cnc(C(F)(F)F)cn2)c1C(=O)Nc1ccc(OCC2CCN(CCF)CC2)nc1` [Example 344, N-(6-{[1-(2-fluoroethyl)piperidin-4-yl]methoxy}pyridin-3-yl)-3-methyl-5-{[5-(trifluoromethyl)pyrazin-2-yl]amino}-1,2-thiazole-4-carboxamide], for which the IC50 was not below 20 µM. On to `Cc1nsc(Nc2cnc(C(F)(F)F)cn2)c1C(=O)Nc1ccc(OCC2CCN(CC(F)F)CC2)nc1` [Example 345, N-(6-{[1-(2,2-difluoroethyl)piperidin-4-yl]methoxy}pyridin-3-yl)-3-methyl-5-{[5-(trifluoromethyl)pyrazin-2-yl]amino}-1,2-thiazole-4-carboxamide], for which the IC50 was not below 20 µM. The same measure for `Cc1nsc(Nc2cnc(C(F)(F)F)cn2)c1C(=O)Nc1ccc(OCC2CCN(CC(F)(F)F)CC2)nc1` [Example 346, 3-methyl-N-(6-{[1-(2,2,2-trifluoroethyl)piperidin-4-yl]methoxy}pyridin-3-yl)-5-{[5-(trifluoromethyl)pyrazin-2-yl]amino}-1,2-thiazole-4-carboxamide]: not below 20 µM; for `Cc1nsc(Nc2cnc(C(F)(F)F)cn2)c1C(=O)Nc1ccc(OCC2CCN(CCC(F)(F)F)CC2)nc1` [Example 347, 3-methyl-5-{[5-(trifluoromethyl)pyrazin-2-yl]amino}-N-(6-{[1-(3,3,3-trifluoropropyl)piperidin-4-yl]methoxy}pyridin-3-yl)-1,2-thiazole-4-carboxamide]: not below 20 µM. Take `Cc1nsc(Nc2cnc(C(F)(F)F)cn2)c1C(=O)Nc1ccc(OCCN(C)CCC(F)(F)F)nc1` [Example 351, 3-methyl-N-(6-{2-[methyl(3,3,3-trifluoropropyl)amino]ethoxy}pyridin-3-yl)-5-{[5-(trifluoromethyl)pyrazin-2-yl]amino}-1,2-thiazole-4-carboxamide]: the IC50 is not below 20 µM. Turning to `Cc1nsc(Nc2cnc(C(F)(F)F)cn2)c1C(=O)Nc1ccc(OCCCN(C)CCF)nc1` [Example 352, N-(6-{3-[(2-fluoroethyl)(methyl)amino]propoxy}pyridin-3-yl)-3-methyl-5-{[5-(trifluoromethyl)pyrazin-2-yl]amino}-1,2-thiazole-4-carboxamide], the IC50 was 19 µM. Regarding `Cc1nsc(Nc2cnc(C(F)(F)F)cn2)c1C(=O)Nc1ccc(CCC2CCN(CC(F)F)CC2)nc1` [Example 356, N-(6-{2-[1-(2,2-difluoroethyl)piperidin-4-yl]ethyl}pyridin-3-yl)-3-methyl-5-{[5-(trifluoromethyl)pyrazin-2-yl]amino}-1,2-thiazole-4-carboxamide], the IC50 is more than 20 µM.

With `Cc1nsc(Nc2cnc(C(F)(F)F)cn2)c1C(=O)Nc1ccc(C2CCN(CC(F)F)CC2)nc1` [Example 357, N-{6-[1-(2,2-difluoroethyl)piperidin-4 yl]pyridin-3-yl}-3-methyl-5-{[5-(trifluoromethyl)pyrazin-2-yl]amino}-1,2-thiazole-4-carboxamide], the IC50 was more than 20 µM. Consider `Cc1nsc(Nc2cnc(C(F)(F)F)cn2)c1C(=O)Nc1ccc(C2CCN(CC(F)(F)F)CC2)nc1` [Example 358, 3-methyl-N-{6-[1-(2,2,2-trifluoroethyl)piperidin-4-yl]pyridin-3-yl}-5-{[5-(trifluoromethyl)pyrazin-2-yl]amino}-1,2-thiazole-4-carboxamide], for which the IC50 was more than 20 µM. Then `Cc1nsc(Nc2cnc(C(F)(F)F)cn2)c1C(=O)Nc1ccc(N2CCN(CC(F)F)CC2)nc1` [Example 359, N-{6-[4-(2,2-difluoroethyl)piperazin-1-yl]pyridin-3-yl}-3-methyl-5-{[5-(trifluoromethyl)pyrazin-2-yl]amino}-1,2-thiazole-4-carboxamide], with more than 20 µM. Then `Cc1nsc(Nc2cnc(C(F)(F)F)cn2)c1C(=O)Nc1ccc(N2CCN(CC(F)(F)F)CC2)nc1` [Example 360, 3-methyl-N-{6-[4-(2,2,2-trifluoroethyl)piperazin-1-yl]pyridin-3-yl}-5-{[5-(trifluoromethyl)pyrazin-2-yl]amino}-1,2-thiazole-4-carboxamide], with more than 20 µM; and `Cc1nsc(Nc2cnc(C(F)(F)F)cn2)c1C(=O)Nc1ccc(N2CCN(CCC(F)(F)F)CC2)nc1` [Example 361, 3-methyl-5-{[5-(trifluoromethyl)pyrazin-2-yl]amino}-N-{6-[4-(3,3,3-trifluoropropyl)piperazin-1-yl]pyridin-3-yl}-1,2-thiazole-4-carboxamide], with more than 20 µM. Then `Cc1nsc(Nc2cnc(C(F)(F)F)cn2)c1C(=O)Nc1ccc(O[C@H]2CCN(CC(F)F)C[C@@H]2F)nc1` [Example 362], with 14 µM; and `Cc1nsc(Nc2cnc(C(F)(F)F)cn2)c1C(=O)Nc1ccc(O[C@H]2CCN(CC(F)(F)F)C[C@@H]2F)nc1` [Example 363, N-(6-{[(3S,4S)-3-fluoro-1-(2,2,2-trifluoroethyl)piperidin-4-yl]oxy}pyridin-3-yl)-3-methyl-5-{[5-(trifluoromethyl)pyrazin-2-yl]amino}-1,2-thiazole-4-carboxamide], with more than 20 µM.

Consider `Cc1nsc(Nc2cnc(C(F)(F)F)cn2)c1C(=O)Nc1ccc(O[C@H]2CCN(CCC(F)(F)F)C[C@@H]2F)nc1` [Example 364, N-(6-{[(3S,4S)-3-fluoro-1-(3,3,3-trifluoropropyl)piperidin-4-yl]oxy}pyridin-3-yl)-3-methyl-5-{[5-(trifluoromethyl)pyrazin-2-yl]amino}-1,2-thiazole-4-carboxamide], for which the IC50 is more than 20 µM.

Consider `CCN1CC[C@H](Oc2ccc(NC(=O)c3c(C)nsc3Nc3cnc(C(F)(F)F)cn3)cn2)[C@@H](F)C1` [Example 365, N-(6-{[(3S,4S)-1-ethyl-3-fluoropiperidin-4-yl]oxy}pyridin-3-yl)-3-methyl-5-{[5-(trifluoromethyl)pyrazin-2-yl]amino}-1,2-thiazole-4-carboxamide], for which the IC50 turned out to be 16 µM. For the molecule `Cc1nsc(Nc2cnc(C(F)(F)F)cn2)c1C(=O)Nc1ccc(O[C@@H]2CCN(CC(F)(F)F)C[C@H]2F)nc1` [Example 367, N-(6-{[(3R,4R)-3-fluoro-1-(2,2,2-trifluoroethyl)piperidin-4-yl]oxy}pyridin-3-yl)-3-methyl-5-{[5-(trifluoromethyl)pyrazin-2-yl]amino}-1,2-thiazole-4-carboxamide], the IC50 was more than 20 µM. Consider `Cc1nsc(Nc2cnc(C(F)(F)F)cn2)c1C(=O)Nc1ccc(O[C@@H]2CCN(CCC(F)(F)F)C[C@H]2F)nc1` [Example 368, N-(6-{[(3R,4R)-3-fluoro-1-(3,3,3-trifluoropropyl)piperidin-4-yl]oxy}pyridin-3-yl)-3-methyl-5-{[5-(trifluoromethyl)pyrazin-2-yl]amino}-1,2-thiazole-4-carboxamide], for which the IC50 was more than 20 µM. The same measure for `CCN1CC[C@@H](Oc2ccc(NC(=O)c3c(C)nsc3Nc3cnc(C(F)(F)F)cn3)cn2)[C@H](F)C1` [Example 369, N-(6-{[(3R,4R)-1-ethyl-3-fluoropiperidin-4-yl]oxy}pyridin-3-yl)-3-methyl-5-{[5-(trifluoromethyl)pyrazin-2-yl]amino}-1,2-thiazole-4-carboxamide]: more than 20 µM; for `CCCN1CC[C@H](Oc2ccc(NC(=O)c3c(C)nsc3Nc3cnc(C(F)(F)F)cn3)cn2)[C@@H](F)C1` [Example 370, N-(6-{[(3S,4S)-3-fluoro-1-propylpiperidin-4-yl]oxy}pyridin-3-yl)-3-methyl-5-{[5-(trifluoromethyl)pyrazin-2-yl]amino}-1,2-thiazole-4-carboxamide]: more than 20 µM; for `CCCN1CC[C@@H](Oc2ccc(NC(=O)c3c(C)nsc3Nc3cnc(C(F)(F)F)cn3)cn2)[C@H](F)C1` [Example 371, N-(6-{[(3R,4R)-3-fluoro-1-propylpiperidin-4-yl]oxy}pyridin-3-yl)-3-methyl-5-{[5-(trifluoromethyl)pyrazin-2-yl]amino}-1,2-thiazole-4-carboxamide]: more than 20 µM. In the case of `Cc1nsc(Nc2cnc(C(F)(F)F)cn2)c1C(=O)Nc1ccc(N2CCN(CC(F)F)CC2)cn1` [Example 372, N-{5-[4-(2,2-difluoroethyl)piperazin-1-yl]pyridin-2-yl}-3-methyl-5-{[5-(trifluoromethyl)pyrazin-2-yl]amino}-1,2-thiazole-4-carboxamide], the IC50 is more than 20 µM. For the molecule `Cc1nsc(Nc2cnc(C(F)(F)F)cn2)c1C(=O)Nc1ccc(N2CCN(CC(F)(F)F)CC2)cn1` [Example 373, 3-methyl-N-{5-[4-(2,2,2-trifluoroethyl)piperazin-1-yl]pyridin-2-yl}-5-{[5-(trifluoromethyl)pyrazin-2-yl]amino}-1,2-thiazole-4-carboxamide], the IC50 was more than 20 µM. For the molecule `Cc1nsc(Nc2cnc(C(F)(F)F)cn2)c1C(=O)Nc1ccc(N2CCN(CCC(F)(F)F)CC2)cn1` [Example 374, 3-methyl-5-{[5-(trifluoromethyl)pyrazin-2-yl]amino}-N-{5-[4-(3,3,3-trifluoropropyl)piperazin-1-yl]pyridin-2-yl}-1,2-thiazole-4-carboxamide], the IC50 is more than 20 µM. On to `Cc1nsc(Nc2cnc(C(F)(F)F)cn2)c1C(=O)Nc1ccc(OC[C@@H]2CCCN(CC(F)F)C2)nc1` [Example 375, N-(6-{[(3R)-1-(2,2-difluoroethyl)piperidin-3-yl]methoxy}pyridin-3-yl)-3-methyl-5-{[5-(trifluoromethyl)pyrazin-2-yl]amino}-1,2-thiazole-4-carboxamide], for which the IC50 is more than 20 µM.
